ChEMBL document CHEMBL1136595, “Oximino-piperidino-piperidine-based CCR5 antagonists. Part 2: synthesis, SAR and biological evaluation of symmetrical heteroaryl carboxamides” (Bioorg Med Chem Lett, 2003)

Columns and labels:
[1] = tested on: Human immunodeficiency virus 1; experiment: Inhibition of HIV-1 (ADA) entry into U-87 (human glioblastoma) cells.; type: functional, organism-based; conditions: Human immunodeficiency virus 1, U-87 MG
[2] = Area under curve after peroral administration at 10 mg/kg in rat for 0-6 h; type: ADME, organism-based; design: time < 6 hr, dose 10 mg/kg, route oral; conditions: in vivo, po
[3] = target: C-C chemokine receptor type 5 (Homo sapiens, UniProt P51681); experiment: Inhibition of [125I]RANTES binding to CCR5 receptor.
Chain of C-C chemokine receptor type 5 (P51681 whole entry): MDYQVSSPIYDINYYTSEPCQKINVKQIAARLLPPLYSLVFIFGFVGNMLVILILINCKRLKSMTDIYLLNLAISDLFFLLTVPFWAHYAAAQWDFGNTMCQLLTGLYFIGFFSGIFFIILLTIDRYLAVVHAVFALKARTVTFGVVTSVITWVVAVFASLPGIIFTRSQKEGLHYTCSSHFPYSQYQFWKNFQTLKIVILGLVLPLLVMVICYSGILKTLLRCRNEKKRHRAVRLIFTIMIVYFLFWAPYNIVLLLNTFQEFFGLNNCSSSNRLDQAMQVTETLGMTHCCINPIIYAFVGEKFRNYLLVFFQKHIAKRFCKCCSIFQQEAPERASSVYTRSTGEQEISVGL

| SMILES | IC50 [1] [nM] | AUC at 6 h [2] [ng·h/mL] | Ki [3] [nM] |
| --- | --- | --- | --- |
| COC[C@@H](c1ccc(C(F)(F)F)cc1)N1CCN(C2(C)CCN(C(=O)c3c(C)ncnc3C)CC2)C[C@@H]1C [VICRIVIROC] | 0.6 | 6500 |  |
| CCO/N=C(\c1ccc(Br)cc1)C1CCN(C2(C)CCN(C(=O)c3c(C)ncnc3C)CC2)CC1 | 0.36 | 3100 | 2.2 |
| CCO/N=C(\c1ccc(Br)cc1)C1CCN(C2(C)CCN(C(=O)c3c(C)c[n+]([O-])cc3C)CC2)CC1 | 0.4 | 1600 | 8.8 |
| CCO/N=C(/c1ccc(Br)cc1)C1CCN(C2(C)CCN(C(=O)c3c(C)nc(C4CC4)nc3C)CC2)CC1 |  |  | 25 |
| CCO/N=C(/c1ccc(Br)cc1)C1CCN(C2(C)CCN(C(=O)c3c(C)nc(N)nc3C)CC2)CC1 | 0.35 | 3100 | 5.7 |
| CCO/N=C(/c1ccc(Br)cc1)C1CCN(C2(C)CCN(C(=O)c3c(C)nc(OC)nc3C)CC2)CC1 | 0.13 | 1800 | 5.3 |
| CCCO/N=C(/c1ccc(Br)cc1)C1CCN(C2(C)CCN(C(=O)c3c(C)ncnc3C)CC2)CC1 | 0.89 | 1600 | 2 |
| CCO/N=C(/c1ccc(Br)cc1)C1CCN(C2(C)CCN(C(=O)c3c(C)nc(C(C)C)nc3C)CC2)CC1 |  |  | 43 |
| CCO/N=C(/c1ccc(Br)cc1)C1CCN(C2(C)CCN(C(=O)c3c(C)nc(NS(C)(=O)=O)nc3C)CC2)CC1 |  |  | 315 |
| CCO/N=C(/c1ccc(Br)cc1)C1CCN(C2(C)CCN(C(=O)c3c(C)nc(C(F)(F)F)nc3C)CC2)CC1 | 0.26 | 2000 | 3.2 |
| Cc1ncnc(C)c1C(=O)N1CCC(C)(N2CCC(/C(=N\OCC(F)(F)F)c3ccc(Br)cc3)CC2)CC1 | 3.8 | 6900 | 14 |
| CCO/N=C(\c1ccc(Br)cc1)C1CCN(C2(C)CCN(C(=O)c3c(Cl)c[n+]([O-])cc3Cl)CC2)CC1 | 0.15 | 3900 | 1.2 |
| Cc1ncnc(C)c1C(=O)N1CCC(C)(N2CCC(/C(=N\OCC3CC3)c3ccc(Br)cc3)CC2)CC1 |  | 3700 | 11 |
| CCO/N=C(/c1ccc(Br)cc1)C1CCN(C2(C)CCN(C(=O)c3c(C)nc(SC)nc3C)CC2)CC1 |  | 400 | 1.3 |
| Cc1ncnc(C)c1C(=O)N1CCC(C)(N2CCC(/C(=N\OCC(C)C)c3ccc(Br)cc3)CC2)CC1 | 1.17 | 600 | 8.1 |
| CCO/N=C(/c1ccc(Br)cc1)C1CCN(C2(C)CCN(C(=O)c3c(C)nc(NC(C)=O)nc3C)CC2)CC1 |  |  | 60 |
| Cc1ncnc(C)c1C(=O)N1CCC(C)(N2CCC(/C(=N\OC(C)C)c3ccc(Br)cc3)CC2)CC1 | 0.28 | 2400 | 3.3 |
| CCO/N=C(\c1ccc(Br)cc1)C1CCN(C2(C)CCN(C(=O)c3c(Br)c[n+]([O-])cc3Br)CC2)CC1 | 1.24 | 4400 | 0.7 |
| CCO/N=C(\c1ccc(Br)cc1)C1CCN(C2(C)CCN(C(=O)c3c(C)cncc3C)CC2)CC1 |  | 1300 | 2.3 |
| CCO/N=C(/c1ccc(Br)cc1)C1CCN(C2(C)CCN(C(=O)c3c(C)nc(C)nc3C)CC2)CC1 | 0.93 | 2700 | 2.1 |
| CCO/N=C(\c1ccc(Br)cc1)C1CCN(C2(C)CCN(C(=O)c3c(Br)cncc3Br)CC2)CC1 | 1.04 | 500 |  |
| CCO/N=C(\c1ccc(Br)cc1)C1CCN(C2(C)CCN(C(=O)c3c(Cl)cncc3Cl)CC2)CC1 | 0.69 | 500 |  |
| CO/N=C(\c1ccc(Br)cc1)C1CCN(C2(C)CCN(C(=O)c3c(C)ncnc3C)CC2)CC1 | 1.83 | 4100 | 4.7 |
